{"source": "paper PMC5762309", "about": "(Oncotarget, 2017)", "key": {"EGFR(L861Q)": {"biological_target": "T1, EGFR(L861Q) (Homo sapiens, UniProt P00533, L861Q)", "T1 construct": "purchased DiscoverX KINOMEscan", "T1 sequence (P00533 25-1210 L861Q)": "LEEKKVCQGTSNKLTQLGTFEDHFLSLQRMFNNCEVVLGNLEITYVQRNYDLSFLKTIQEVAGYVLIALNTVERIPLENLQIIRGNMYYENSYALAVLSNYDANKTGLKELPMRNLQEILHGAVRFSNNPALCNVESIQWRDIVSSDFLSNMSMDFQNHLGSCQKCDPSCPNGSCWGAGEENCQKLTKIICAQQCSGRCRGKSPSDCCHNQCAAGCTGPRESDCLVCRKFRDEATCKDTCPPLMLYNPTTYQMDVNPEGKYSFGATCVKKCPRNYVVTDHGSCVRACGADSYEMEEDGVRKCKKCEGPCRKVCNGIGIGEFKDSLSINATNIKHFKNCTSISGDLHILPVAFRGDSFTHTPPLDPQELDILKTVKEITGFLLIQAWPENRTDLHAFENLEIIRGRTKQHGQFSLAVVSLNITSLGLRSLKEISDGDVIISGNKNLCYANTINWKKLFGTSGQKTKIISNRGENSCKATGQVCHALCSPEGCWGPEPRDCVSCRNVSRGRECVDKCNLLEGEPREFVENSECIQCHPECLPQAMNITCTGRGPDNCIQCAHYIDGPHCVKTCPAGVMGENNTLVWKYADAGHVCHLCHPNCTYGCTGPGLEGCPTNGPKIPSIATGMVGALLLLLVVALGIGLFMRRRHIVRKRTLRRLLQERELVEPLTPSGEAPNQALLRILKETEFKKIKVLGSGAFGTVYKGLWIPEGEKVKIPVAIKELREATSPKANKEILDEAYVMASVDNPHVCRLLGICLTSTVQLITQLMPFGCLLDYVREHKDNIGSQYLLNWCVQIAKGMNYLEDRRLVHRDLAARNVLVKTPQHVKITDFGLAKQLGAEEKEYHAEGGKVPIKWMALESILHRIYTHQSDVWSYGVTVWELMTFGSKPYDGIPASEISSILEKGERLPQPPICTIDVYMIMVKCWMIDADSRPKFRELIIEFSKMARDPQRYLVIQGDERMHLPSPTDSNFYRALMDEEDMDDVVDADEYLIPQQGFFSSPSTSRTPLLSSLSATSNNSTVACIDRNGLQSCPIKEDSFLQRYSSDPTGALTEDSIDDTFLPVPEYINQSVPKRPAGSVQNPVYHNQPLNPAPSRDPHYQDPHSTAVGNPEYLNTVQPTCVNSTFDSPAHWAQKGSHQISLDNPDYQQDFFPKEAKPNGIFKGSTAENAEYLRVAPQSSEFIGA", "experiment": "KINOMEScan", "assay_type": "binding", "set-up": "dose or concentration left out as unconfirmed"}, "ARK5": {"biological_target": "T2, ARK5 (Homo sapiens, UniProt O60285)", "T2 construct": "purchased DiscoverX KINOMEscan", "experiment": "KINOMEScan", "assay_type": "binding", "set-up": "dose or concentration left out as unconfirmed"}, "[1]": {"biological_target": "T3, RSK4(Kin.Dom.1-N-terminal) (Homo sapiens, UniProt Q9UK32)", "T3 construct": "RSK4(Kin.Dom.1-N-terminal); purchased DiscoverX KINOMEscan", "T3 sequence (Q9UK32 73-400 limits assumed)": "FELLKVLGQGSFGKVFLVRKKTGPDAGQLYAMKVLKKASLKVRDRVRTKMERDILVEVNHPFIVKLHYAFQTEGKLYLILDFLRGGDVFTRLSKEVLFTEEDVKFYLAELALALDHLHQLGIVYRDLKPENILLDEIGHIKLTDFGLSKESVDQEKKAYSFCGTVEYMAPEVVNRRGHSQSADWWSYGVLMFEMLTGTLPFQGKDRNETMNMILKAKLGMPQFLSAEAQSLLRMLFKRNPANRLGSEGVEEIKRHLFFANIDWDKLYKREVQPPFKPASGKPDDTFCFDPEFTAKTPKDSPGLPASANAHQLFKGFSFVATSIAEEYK", "experiment": "KINOMEScan", "assay_type": "binding"}, "CDK8": {"biological_target": "T4, CDK8 (Homo sapiens, UniProt P49336)", "T4 construct": "purchased DiscoverX KINOMEscan", "experiment": "KINOMEScan", "assay_type": "binding", "set-up": "dose or concentration left out as unconfirmed"}, "KIT L576p": {"biological_target": "KIT L576p (Homo sapiens, UniProt P10721, L576P)", "sequence (P10721 26-976 L576P)": "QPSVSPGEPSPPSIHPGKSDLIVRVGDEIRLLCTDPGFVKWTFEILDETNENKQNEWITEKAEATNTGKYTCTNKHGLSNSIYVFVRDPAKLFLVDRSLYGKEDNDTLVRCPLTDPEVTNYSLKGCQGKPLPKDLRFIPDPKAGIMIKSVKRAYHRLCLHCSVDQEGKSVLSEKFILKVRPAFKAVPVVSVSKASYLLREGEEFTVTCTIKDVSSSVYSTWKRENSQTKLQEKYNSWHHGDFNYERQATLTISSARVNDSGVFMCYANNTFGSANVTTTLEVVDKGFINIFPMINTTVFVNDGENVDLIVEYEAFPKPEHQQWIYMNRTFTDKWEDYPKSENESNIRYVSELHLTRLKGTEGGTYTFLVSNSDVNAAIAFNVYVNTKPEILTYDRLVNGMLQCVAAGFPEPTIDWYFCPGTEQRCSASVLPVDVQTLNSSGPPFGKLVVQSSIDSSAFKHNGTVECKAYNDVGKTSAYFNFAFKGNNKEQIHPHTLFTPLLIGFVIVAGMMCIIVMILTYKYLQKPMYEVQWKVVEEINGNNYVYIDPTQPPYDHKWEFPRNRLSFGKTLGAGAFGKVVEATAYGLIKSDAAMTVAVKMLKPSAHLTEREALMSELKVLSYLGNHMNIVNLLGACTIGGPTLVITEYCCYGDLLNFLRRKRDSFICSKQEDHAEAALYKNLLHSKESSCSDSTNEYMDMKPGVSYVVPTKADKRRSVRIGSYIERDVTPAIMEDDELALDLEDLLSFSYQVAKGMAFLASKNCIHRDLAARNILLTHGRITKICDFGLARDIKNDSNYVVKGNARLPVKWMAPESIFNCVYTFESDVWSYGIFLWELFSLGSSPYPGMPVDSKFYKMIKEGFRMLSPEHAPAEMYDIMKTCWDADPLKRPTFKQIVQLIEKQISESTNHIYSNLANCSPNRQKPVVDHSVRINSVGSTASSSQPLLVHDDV", "experiment": "KIT auto-phosphorylation in transformed BaF3 cells", "conditions": "2h"}, "KIT V559D": {"biological_target": "KIT V559D (Homo sapiens, UniProt P10721, V559D)", "sequence (P10721 545-976 V559D)": "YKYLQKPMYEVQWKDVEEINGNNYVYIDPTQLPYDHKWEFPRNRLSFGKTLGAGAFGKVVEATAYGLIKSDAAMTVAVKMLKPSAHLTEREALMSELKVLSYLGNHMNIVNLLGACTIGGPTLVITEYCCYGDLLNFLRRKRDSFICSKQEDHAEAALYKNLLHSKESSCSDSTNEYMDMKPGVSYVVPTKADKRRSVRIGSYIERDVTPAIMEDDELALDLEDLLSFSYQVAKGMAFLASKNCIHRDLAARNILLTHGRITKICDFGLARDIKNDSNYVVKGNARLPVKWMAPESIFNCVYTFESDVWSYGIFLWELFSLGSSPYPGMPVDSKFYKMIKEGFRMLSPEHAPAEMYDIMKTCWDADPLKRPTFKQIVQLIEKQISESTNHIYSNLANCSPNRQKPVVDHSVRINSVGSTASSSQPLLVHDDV", "experiment": "Kd determination by MST", "assay_type": "binding", "set-up": "Kit V559D encoding residues 545-976 with His tag; His tag; made in house; host or cells: SF9 insect cells (baculovirus)", "conditions": "purified protein"}, "CAMK1B": {"biological_target": "T5, CAMK1B (Homo sapiens, UniProt Q6P2M8)", "T5 construct": "purchased DiscoverX KINOMEscan", "experiment": "KINOMEScan", "assay_type": "binding", "set-up": "dose or concentration left out as unconfirmed"}, "PIKFYVE": {"biological_target": "T6, PIKFYVE (Homo sapiens, UniProt Q9Y2I7)", "T6 construct": "purchased DiscoverX KINOMEscan", "experiment": "KINOMEScan", "assay_type": "binding", "set-up": "dose or concentration left out as unconfirmed"}, "CHEK1": {"biological_target": "T7, CHEK1 (Homo sapiens, UniProt O14757)", "T7 construct": "purchased DiscoverX KINOMEscan", "experiment": "KINOMEScan", "assay_type": "binding", "set-up": "dose or concentration left out as unconfirmed"}, "PRKR": {"biological_target": "T8, PRKR (Homo sapiens, UniProt P19525)", "T8 construct": "purchased DiscoverX KINOMEscan", "experiment": "KINOMEScan", "assay_type": "binding", "set-up": "dose or concentration left out as unconfirmed"}, "EGFR(G719S)": {"biological_target": "T9, EGFR(G719S) (Homo sapiens, UniProt P00533, G719S)", "T9 construct": "purchased DiscoverX KINOMEscan", "experiment": "KINOMEScan", "assay_type": "binding", "set-up": "dose or concentration left out as unconfirmed"}, "ACVR2B": {"biological_target": "T10, ACVR2B (Homo sapiens, UniProt Q13705)", "T10 construct": "purchased DiscoverX KINOMEscan", "T10 sequence (Q13705 19-512)": "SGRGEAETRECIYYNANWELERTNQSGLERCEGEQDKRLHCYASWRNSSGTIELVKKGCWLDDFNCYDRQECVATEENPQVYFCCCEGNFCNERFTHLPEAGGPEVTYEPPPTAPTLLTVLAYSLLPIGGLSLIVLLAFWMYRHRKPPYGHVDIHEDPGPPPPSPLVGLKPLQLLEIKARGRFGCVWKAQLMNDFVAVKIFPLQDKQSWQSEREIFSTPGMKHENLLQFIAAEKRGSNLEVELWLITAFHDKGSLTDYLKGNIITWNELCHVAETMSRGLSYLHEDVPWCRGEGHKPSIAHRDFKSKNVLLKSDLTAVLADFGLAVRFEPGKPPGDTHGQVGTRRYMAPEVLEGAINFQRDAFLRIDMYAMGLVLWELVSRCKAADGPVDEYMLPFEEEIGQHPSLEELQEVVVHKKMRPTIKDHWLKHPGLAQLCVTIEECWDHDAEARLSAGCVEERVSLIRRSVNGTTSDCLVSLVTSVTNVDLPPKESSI", "experiment": "KINOMEScan", "assay_type": "binding", "set-up": "dose or concentration left out as unconfirmed"}, "MST3": {"biological_target": "T11, MST3 (Homo sapiens, UniProt Q9Y6E0)", "T11 construct": "purchased DiscoverX KINOMEscan", "experiment": "KINOMEScan", "assay_type": "binding", "set-up": "dose or concentration left out as unconfirmed"}, "CDK2": {"biological_target": "T12, CDK2 (Homo sapiens, UniProt P24941)", "T12 construct": "purchased DiscoverX KINOMEscan", "experiment": "KINOMEScan", "assay_type": "binding", "set-up": "dose or concentration left out as unconfirmed"}, "KIT wt [2]": {"biological_target": "T13, KIT wt (Homo sapiens, UniProt P10721)", "experiment": "KIT auto-phosphorylation in parental Colo320DM cells", "assay_type": "cell-based", "set-up": "Colo320DM cells which express wt KIT kinase; endogenous in cells; host or cells: Colo320DM, SCF-stimulated", "source_text": "In order to better define CHMFL-KIT-031’s inhibitory effect against KIT V559D mutant, we then tested it with purified KIT wt/V559D kinase protein by ADP-Glo assay (Figure 2A). […] We also transformed and overexpressed KIT V559D transiently into Colo320DM cells which express wt KIT kinase and tested CHMFL-KIT-031’s inhibitory effects for the auto-phosphorylation of KIT Y703, 719 and Y823 sites."}, "SIK": {"biological_target": "T14, SIK (Homo sapiens, UniProt P57059)", "T14 construct": "purchased DiscoverX KINOMEscan", "experiment": "KINOMEScan", "assay_type": "binding", "set-up": "dose or concentration left out as unconfirmed"}, "CDK3": {"biological_target": "T15, CDK3 (Homo sapiens, UniProt Q00526)", "T15 construct": "purchased DiscoverX KINOMEscan", "experiment": "KINOMEScan", "assay_type": "binding", "set-up": "dose or concentration left out as unconfirmed"}, "KIT wt [3]": {"biological_target": "T13, KIT wt", "experiment": "ADP-Glo biochemical assay", "set-up": "wt KIT residues 544-935 with a His tag; His tag; made in house; host or cells: SF9 insect cells (baculovirus)", "conditions": "purified kinase protein, 100 μM ATP"}, "MET(M1250T)": {"biological_target": "T16, MET(M1250T) (Homo sapiens, UniProt P08581, M1250T)", "T16 construct": "purchased DiscoverX KINOMEscan", "experiment": "KINOMEScan", "assay_type": "binding", "set-up": "dose or concentration left out as unconfirmed"}, "[4]": {"biological_target": "T17, TYK2(JH2domain-pseudokinase) (Homo sapiens, UniProt P29597)", "T17 construct": "TYK2(JH2domain-pseudokinase); purchased DiscoverX KINOMEscan", "T17 sequence (P29597 556-888 limits assumed)": "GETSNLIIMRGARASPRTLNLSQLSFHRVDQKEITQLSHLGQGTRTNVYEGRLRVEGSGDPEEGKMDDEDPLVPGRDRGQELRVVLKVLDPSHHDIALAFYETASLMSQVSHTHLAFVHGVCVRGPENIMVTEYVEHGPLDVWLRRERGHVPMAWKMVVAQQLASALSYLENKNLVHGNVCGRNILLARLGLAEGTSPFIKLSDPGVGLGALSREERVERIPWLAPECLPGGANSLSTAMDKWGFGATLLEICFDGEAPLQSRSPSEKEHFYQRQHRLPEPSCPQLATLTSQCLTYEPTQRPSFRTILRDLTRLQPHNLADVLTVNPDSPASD", "experiment": "KINOMEScan", "assay_type": "binding", "set-up": "dose or concentration left out as unconfirmed"}, "CSNK1G3": {"biological_target": "T18, CSNK1G3 (Homo sapiens, UniProt Q9Y6M4)", "T18 construct": "purchased DiscoverX KINOMEscan", "experiment": "KINOMEScan", "assay_type": "binding", "set-up": "dose or concentration left out as unconfirmed"}, "WNK1": {"biological_target": "T19, WNK1 (Homo sapiens, UniProt Q9H4A3)", "T19 construct": "purchased DiscoverX KINOMEscan", "experiment": "KINOMEScan", "assay_type": "binding", "set-up": "dose or concentration left out as unconfirmed"}, "CDC2L5": {"biological_target": "T20, CDC2L5 (Homo sapiens, UniProt Q14004)", "T20 construct": "purchased DiscoverX KINOMEscan", "experiment": "KINOMEScan", "assay_type": "binding", "conditions": "Concentrations 1 µM", "source_text": "Then we used the DiscoverX’s KINOMEScan platform to further examine CHMFL-KIT-031’s kinome-wide selectivity profile. […] Besides the strong binding to V559D, it also bound strongly to KIT wt, L576P and A829P."}, "PFTK1": {"biological_target": "T21, PFTK1 (Homo sapiens, UniProt O94921)", "T21 construct": "purchased DiscoverX KINOMEscan", "experiment": "KINOMEScan", "assay_type": "binding", "set-up": "dose or concentration left out as unconfirmed"}, "EGFR(L858R)": {"biological_target": "T22, EGFR(L858R) (Homo sapiens, UniProt P00533, L858R)", "T22 construct": "purchased DiscoverX KINOMEscan", "T22 sequence (P00533 25-1210 L858R)": "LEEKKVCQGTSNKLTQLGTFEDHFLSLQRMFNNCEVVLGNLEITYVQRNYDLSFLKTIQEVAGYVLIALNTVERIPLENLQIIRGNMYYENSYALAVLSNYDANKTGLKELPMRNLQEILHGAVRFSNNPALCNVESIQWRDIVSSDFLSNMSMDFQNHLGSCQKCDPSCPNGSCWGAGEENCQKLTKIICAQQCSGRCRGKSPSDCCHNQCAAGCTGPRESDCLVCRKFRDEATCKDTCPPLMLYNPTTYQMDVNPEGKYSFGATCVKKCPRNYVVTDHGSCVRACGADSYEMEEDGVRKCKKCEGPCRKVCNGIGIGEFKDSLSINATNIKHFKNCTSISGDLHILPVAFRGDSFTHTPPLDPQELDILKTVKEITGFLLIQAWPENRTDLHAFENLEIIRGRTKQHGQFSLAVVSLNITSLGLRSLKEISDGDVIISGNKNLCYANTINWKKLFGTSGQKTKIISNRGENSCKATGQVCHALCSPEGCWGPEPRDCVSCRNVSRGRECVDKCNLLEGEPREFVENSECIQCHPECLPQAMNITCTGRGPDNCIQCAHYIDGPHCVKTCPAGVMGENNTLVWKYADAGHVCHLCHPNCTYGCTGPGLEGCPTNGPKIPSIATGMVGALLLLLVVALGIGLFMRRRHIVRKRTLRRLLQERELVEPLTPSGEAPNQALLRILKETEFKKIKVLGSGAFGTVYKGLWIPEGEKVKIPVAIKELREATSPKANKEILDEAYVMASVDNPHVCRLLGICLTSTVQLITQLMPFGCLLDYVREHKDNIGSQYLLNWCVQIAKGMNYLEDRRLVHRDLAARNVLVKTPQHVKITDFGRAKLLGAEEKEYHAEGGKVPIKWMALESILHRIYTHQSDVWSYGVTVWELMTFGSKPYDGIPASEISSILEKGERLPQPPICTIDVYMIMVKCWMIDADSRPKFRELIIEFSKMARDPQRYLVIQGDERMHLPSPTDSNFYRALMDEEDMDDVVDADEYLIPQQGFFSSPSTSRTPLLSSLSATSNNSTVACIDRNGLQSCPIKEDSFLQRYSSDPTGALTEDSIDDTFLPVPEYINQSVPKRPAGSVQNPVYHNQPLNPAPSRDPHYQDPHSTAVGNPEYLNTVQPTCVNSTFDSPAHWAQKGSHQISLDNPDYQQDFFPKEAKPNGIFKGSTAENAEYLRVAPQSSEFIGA", "experiment": "KINOMEScan", "assay_type": "binding", "set-up": "dose or concentration left out as unconfirmed"}}, "note": "Read-outs that look alike come from different tables or passages of the source.", "data": [{"smiles": "COc1cc(C(=O)NCC(=O)Nc2ccc3c(/C=C/c4ccccn4)n[nH]c3c2)cc(OC)c1OC", "note": "[CHMFL-KIT-031]", "values": [{"measurement": "KINOMEScan profiling value", "setting": "EGFR(L861Q)", "result": 100}, {"measurement": "KINOMEScan profiling value", "setting": "ARK5", "result": 97}, {"measurement": "KINOMEScan profiling value", "setting": "[1]", "result": 97}, {"measurement": "KINOMEScan profiling value", "setting": "CDK8", "result": 100}, {"measurement": "EC50", "setting": "KIT L576p; EC50 pY703 auto-phosphorylation", "result": "> 10", "unit": "µM"}, {"measurement": "EC50", "setting": "KIT L576p; EC50 pY719 auto-phosphorylation", "result": 5.9, "unit": "µM"}, {"measurement": "EC50", "setting": "KIT L576p; EC50 pY823 auto-phosphorylation", "result": 1.9, "unit": "µM"}, {"measurement": "Kd", "setting": "KIT V559D", "result": 0.266, "unit": "µM"}, {"measurement": "KINOMEScan profiling value", "setting": "CAMK1B", "result": 83}, {"measurement": "KINOMEScan profiling value", "setting": "PIKFYVE", "result": 87}, {"measurement": "KINOMEScan profiling value", "setting": "CHEK1", "result": 97}, {"measurement": "KINOMEScan profiling value", "setting": "PRKR", "result": 97}, {"measurement": "KINOMEScan profiling value", "setting": "EGFR(G719S)", "result": 95}, {"measurement": "KINOMEScan profiling value", "setting": "ACVR2B", "result": 100}, {"measurement": "KINOMEScan profiling value", "setting": "MST3", "result": 86}, {"measurement": "KINOMEScan profiling value", "setting": "CDK2", "result": 100}, {"measurement": "EC50", "setting": "KIT wt [2]; COLO 320DM (KIT wt), SCF stimulation, read-out: EC50 P-CKIT Y719", "result": 5.62, "unit": "µM"}, {"measurement": "EC50", "setting": "KIT wt [2]; COLO 320DM (KIT wt), SCF stimulation, read-out: EC50 P-CKIT Y823", "result": 9.7, "unit": "µM"}, {"measurement": "EC50", "setting": "KIT wt [2]; in cell, KIT wt, read-out: EC50 pY703", "result": 2, "unit": "µM"}, {"measurement": "KINOMEScan profiling value", "setting": "SIK", "result": 100}, {"measurement": "KINOMEScan profiling value", "setting": "CDK3", "result": 100}, {"measurement": "IC50", "setting": "KIT wt [3]", "result": 0.168, "unit": "µM"}, {"measurement": "KINOMEScan profiling value", "setting": "MET(M1250T)", "result": 100}, {"measurement": "KINOMEScan profiling value", "setting": "[4]", "result": 100}, {"measurement": "KINOMEScan profiling value", "setting": "CSNK1G3", "result": 99}, {"measurement": "KINOMEScan profiling value", "setting": "WNK1", "result": 19}, {"measurement": "KINOMEScan profiling value", "setting": "CDC2L5", "result": 97}, {"measurement": "KINOMEScan profiling value", "setting": "PFTK1", "result": 100}, {"measurement": "KINOMEScan profiling value", "setting": "EGFR(L858R)", "result": 100}]}]}
